One assay concerns the target human Plasma Kallikrein (Homo sapiens (Human), UniProt P03952). The assay is described as follows: In vitro enzyme inhibition of human plasma kallikrein (PFR-AMC cleavage). The assay is classed as biochemical.
Details: not given
As to the method:
The ability of the compounds disclosed herein to inhibit human plasma kallikrein activity was quantified according to the procedures below.
A 10 mM solution of the test compound was made in DMSO. […] A control tube containing only DMSO is included. 16 μL of each compound test solution was combined with 384 μL of assay buffer (50 mM Tris-HCl pH 7.5, 150 mM NaCl, 0.01% Triton X-100) to yield a “4× test compound buffer stock”.
These solutions are hereby referred to as 4×hPK and 2×PFR-AMC, respectively.
50 μL was removed from this mixture and placed into duplicate wells on a Microfluor 1Black U-bottom microtiter plate (Thermo Scientific). This plate was incubated for 5 minutes at 37° C. To each well, 50 μL of pre-warmed 2×PFR-AMC was added to start the enzymatic reaction. Cleavage of PFR-AMC was monitored in a Biotek Synergy H4 reader set at 37° C. Readings are taken every 43 seconds for 1 hour. […] The IC50 is calculated using the Gen5 (Biotek Instruments).
The ability of the compounds in Table 3 to inhibit human plasma kallikrein activity was determined.
Sequence of human Plasma Kallikrein (P03952 20-638): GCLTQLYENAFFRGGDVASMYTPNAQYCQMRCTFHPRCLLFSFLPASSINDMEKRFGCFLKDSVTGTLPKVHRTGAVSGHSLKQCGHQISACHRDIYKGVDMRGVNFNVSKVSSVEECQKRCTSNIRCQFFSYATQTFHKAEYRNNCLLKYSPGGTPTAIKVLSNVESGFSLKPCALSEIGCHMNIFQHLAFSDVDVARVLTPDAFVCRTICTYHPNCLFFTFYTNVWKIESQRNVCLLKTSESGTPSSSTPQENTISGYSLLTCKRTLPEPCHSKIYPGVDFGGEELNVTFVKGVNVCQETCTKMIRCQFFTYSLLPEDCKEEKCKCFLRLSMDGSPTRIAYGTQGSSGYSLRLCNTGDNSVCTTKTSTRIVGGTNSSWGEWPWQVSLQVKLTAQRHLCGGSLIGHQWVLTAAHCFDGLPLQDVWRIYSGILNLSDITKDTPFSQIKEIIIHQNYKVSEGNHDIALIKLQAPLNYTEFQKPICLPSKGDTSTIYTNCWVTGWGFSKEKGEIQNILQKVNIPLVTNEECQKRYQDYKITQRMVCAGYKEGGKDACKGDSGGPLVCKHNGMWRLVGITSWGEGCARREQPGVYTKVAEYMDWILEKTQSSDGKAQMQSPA
Take `Cc1cc(N)ncc1CNC(=O)c1ccnc(Cc2cc(C#N)c3ncc(Cl)cc3c2)c1` [Example 53, N-((6-amino-4-methylpyridin-3-yl)methyl)-2-((3-chloro-8-cyanoquinolin-6-yl)methyl)isonicotinamide]: the IC50 lay within 100 to 1000 nM.

Staying with this assay, now noted: human plasma kallikrein, Pro-Phe-Arg-AMC substrate, 37° C.; read-out: hPK IC50.
Consider `Cc1cc(N)nc(C)c1CNC(=O)c1ccnc(Cc2cnc3cc(Cl)ccc3c2)c1` [Example 141, N-((6-amino-2,4-dimethylpyridin-3-yl)methyl)-2-((7-chloroquinolin-3-yl)methyl)isonicotinamide], for which the IC50 was less than 100 nM. Still for that read-out and setting: with `N#Cc1cc(Cc2cc(C(=O)NCc3cnc4[nH]cc(Cl)c4c3)ccn2)cc2cc(Cl)cnc12` [Example 55, 2-(3-chloro-8-cyano-quinolin-6-ylmethyl)-N-(3-chloro-1H-pyrrolo[2,3-b]pyridin-5-ylmethyl)-isonicotinamide] the figure was less than 100 nM; with `O=C(NCc1cc2c(Cl)c[nH]c2cc1F)c1ccnc(Cc2cc(F)c3ncc(Cl)cc3c2)c1` [Example 90, N-(3-chloro-6-fluoro-1H-indol-5-ylmethyl)-2-(3-chloro-8-fluoro-quinolin-6-ylmethyl)-isonicotinamide], less than 100 nM; with `Cc1ccc2nn(Cc3cc(C(=O)NCc4c(C)cc(N)nc4C)ccn3)cc2c1` [Example 107, N-((6-amino-2,4-dimethylpyridin-3-yl)methyl)-2-((5-methyl-2H-indazol-2-yl)methyl)isonicotinamide], 100 to 1000 nM. As to `Cc1cc(N)nc(C)c1CNC(=O)c1ccnc(Cc2ccc3[nH]cc(C)c3c2)c1` [Example 25, N-((6-amino-2,4-dimethylpyridin-3-yl)methyl)-2-((3-methyl-1H-indol-5-yl)methyl)isonicotinamide], the IC50 fell in the range of 100 to 1000 nM.

Regarding `O=C(NCc1cc2c(Cl)c[nH]c2cc1F)c1ccnc(Cc2cnc3ccc(F)cc3c2)c1` [Example 120, N-((3-chloro-6-fluoro-1H-indol-5-yl)methyl)-2-((6-fluoroquinolin-3-yl)methyl)isonicotinamide], the IC50 is less than 100 nM. Take `CC(=O)NCc1ccc2cc(Cc3cc(C(=O)NCc4cc5c(Cl)c[nH]c5cc4F)ccn3)ccc2n1` [Example 9, 2-[2-(acetylamino-methyl)-quinolin-6-ylmethyl]-N-(3-chloro-6-fluoro-1H-indol-5-ylmethyl)-isonicotinamide]: the 50% inhibitory concentration (IC50) was in the range of 100 to 1000 nM. Turning to `Cc1cc(N)nc(C)c1CNC(=O)c1ccnc(Cc2ccc3[nH]cc(Cl)c3c2)c1` [Example 24, N-((6-amino-2,4-dimethylpyridin-3-yl)methyl)-2-((3-chloro-1H-indol-5-yl)methyl)isonicotinamide], the IC50 was 100 to 1000 nM. As for `NCc1ccc2cc(Cc3cc(C(=O)NCc4cc5c(Cl)c[nH]c5cc4F)ccn3)ccc2n1` [Example 45, 2-((2-(aminomethyl)quinolin-6-yl)methyl)-N-((3-chloro-6-fluoro-1H-indol-5-yl)methyl)isonicotinamide], the IC50 lay within 100 to 1000 nM. The same measure, in the same setting: with `Cc1nc(N)ccc1CNC(=O)c1ccnc(Cc2cc(Cl)c3ncc(Cl)cc3c2)c1` [Example 101, N-((6-amino-2-methylpyridin-3-yl)methyl)-2-((3,8-dichloroquinolin-6-yl)methyl)isonicotinamide] the figure was less than 100 nM. Regarding `Cc1cc(C(=O)NCc2c(C)cc(N)nc2C)cc(Cc2ccc3ncc(Cl)cc3c2)n1` [Example 104, N-((6-amino-2,4-dimethylpyridin-3-yl)methyl)-2-((3-chloroquinolin-6-yl)methyl)-6-methylisonicotinamide], the concentration for half-maximal inhibition (IC50) is less than 100 nM.

In the case of `Cc1cc(N)nc(C)c1CNC(=O)c1ccnc(Cc2cnc3cc(F)ccc3c2)c1` [Example 122, N-((6-amino-2,4-dimethylpyridin-3-yl)methyl)-2-((7-fluoroquinolin-3-yl)methyl)isonicotinamide], the 50% inhibitory concentration (IC50) is less than 100 nM. Same read-out and setting: the figure for `N#Cc1ccnc2ccc(Cc3cc(C(=O)NCc4cc5c(Cl)c[nH]c5cc4F)ccn3)cc12` [Example 137, N-((3-chloro-6-fluoro-1H-indol-5-yl)methyl)-2-((4-cyanoquinolin-6-yl)methyl)isonicotinamide] is 100 to 1000 nM; for `Cc1nc(N)ccc1CNC(=O)c1ccnc(Cc2cnc3ccc(F)cc3c2)c1` [Example 121, N-((6-amino-2-methylpyridin-3-yl)methyl)-2-((6-fluoroquinolin-3-yl)methyl)isonicotinamide] it is less than 100 nM; for `Cc1cc(N)nc(C)c1CNC(=O)c1ccnc(Cc2cc(CO)c3ncc(Cl)cc3c2)c1` [Example 94, N-((6-amino-2,4-dimethylpyridin-3-yl)methyl)-2-((3-chloro-8-(hydroxymethyl)quinolin-6-yl)methyl)isonicotinamide] it is less than 100 nM. Turning to `Cc1ccc2nc(S(C)(=O)=O)c(Cc3cc(C(=O)NCc4cc5c(Cl)c[nH]c5cc4F)ccn3)cc2c1` [Example 109, N-((3-chloro-6-fluoro-1H-indol-5-yl)methyl)-2-((6-methyl-2-(methylsulfonyl)quinolin-3-yl)methyl)isonicotinamide], the IC50 lay in the range of 100 to 1000 nM.

Consider `O=C(NCc1cc2c(Cl)c[nH]c2cc1F)c1ccnc(Cc2cnc3cc(F)ccc3c2)c1` [Example 123, N-((3-chloro-6-fluoro-1H-indol-5-yl)methyl)-2-((7-fluoroquinolin-3-yl)methyl)isonicotinamide], for which the half-maximal inhibitory concentration (IC50) was less than 100 nM. As to `Cc1cc(N)nc(C)c1CNC(=O)c1ccnc(Cc2ccc3c(cc(Cl)c[n+]3[O-])c2)c1` [Example 99, 6-((4-(((6-amino-2,4-dimethylpyridin-3-yl)methyl)carbamoyl)pyridin-2-yl)methyl)-3-chloroquinoline 1-oxide], the IC50 was less than 100 nM.

Turning to `Nc1nccc2cc(CNC(=O)c3ccnc(Cc4cnc5ccc(F)cc5n4)c3)ccc12` [Example 8, N-((1-aminoisoquinolin-6-yl)methyl)-2-((7-fluoroquinoxalin-2-yl)methyl)isonicotinamide], the concentration for half-maximal inhibition (IC50) was in the range of 100 to 1000 nM. As for `Cc1cc(N)nc(C)c1CNC(=O)c1ccnc(Cc2ccc3ncc(Cl)cc3c2F)c1` [Example 102, N-((6-amino-2,4-dimethylpyridin-3-yl)methyl)-2-((3-chloro-5-fluoroquinolin-6-yl)methyl)isonicotinamide], the IC50 was less than 100 nM. With `Cc1cc(N)nc(C)c1CNC(=O)c1ccnc(Cn2cc3cc(Cl)ccc3cc2=O)c1` [Example 87, N-((6-amino-2,4-dimethylpyridin-3-yl)methyl)-2-((7-chloro-3-oxoisoquinolin-2(3H)-yl)methyl)isonicotinamide], the half-inhibitory concentration (IC50) was in the range of 100 to 1000 nM.

For the molecule `Cc1nc(N)ccc1CNC(=O)c1ccnc(Cc2cc(C(=O)O)c3ncc(Cl)cc3c2)c1` [Example 96, 6-((4-(((6-amino-2-methylpyridin-3-yl)methyl)carbamoyl)pyridin-2-yl)methyl)-3-chloroquinoline-8-carboxylic acid], the IC50 lay in the range of 100 to 1000 nM. In the case of `Cc1ccc2cc(Cc3cc(C(=O)NCc4ccc(N)nc4C)ccn3)ccc2n1` [Example 112, N-((6-amino-2-methylpyridin-3-yl)methyl)-2-((2-methylquinolin-6-yl)methyl)isonicotinamide], the IC50 was less than 100 nM. As to `CC(=O)NCc1ccc2cc(Cc3cc(C(=O)NCc4c(C)cc(N)nc4C)ccn3)ccc2n1` [Example 11, 2-[2-(acetylamino-methyl)-quinolin-6-ylmethyl]-N-(6-amino-2,4-dimethyl-pyridin-3-ylmethyl)-isonicotinamide], the IC50 lay in the range of 100 to 1000 nM. As for `Cc1cc2cc(Cc3cc(C(=O)NCc4cc5c(Cl)c[nH]c5cc4F)ccn3)ccc2cn1` [Example 133, N-((3-chloro-6-fluoro-1H-indol-5-yl)methyl)-2-((3-methylisoquinolin-6-yl)methyl)isonicotinamide], the IC50 was less than 100 nM. For the molecule `Cc1cc(N)nc(C)c1CNC(=O)c1ccnc(Cc2ccc3nccc(C#N)c3c2)c1` [Example 138, N-((6-amino-2,4-dimethylpyridin-3-yl)methyl)-2-((4-cyanoquinolin-6-yl)methyl)isonicotinamide], the IC50 was less than 100 nM. On the same count and under the same terms, the figure for `CC(=O)NCc1ccc2cc(Cc3cc(C(=O)NCc4ccc5c(N)nccc5c4)ccn3)ccc2n1` [Example 10, 2-[2-(acetylamino-methyl)-quinolin-6-ylmethyl]-N-(1-amino-isoquinolin-6-ylmethyl)-isonicotinamide] is 100 to 1000 nM; for `Nc1ccc(CNC(=O)c2ccnc(Cc3ccc4ncc(Cl)cc4c3)c2)c(C(F)(F)F)n1` [Example 30, N-((6-amino-2-(trifluoromethyl)pyridin-3-yl)methyl)-2-((3-chloroquinolin-6-yl)methyl)isonicotinamide] it is greater than 10000 nM. The same measure, in the same setting: the figure for `NC(=O)c1ccc2cc(Cc3cc(C(=O)NCc4cc5c(Cl)c[nH]c5cc4F)ccn3)ccc2n1` [Example 1, 6-((4-(((3-chloro-6-fluoro-1H-indol-5-yl)methyl)carbamoyl)pyridin-2-yl)methyl)quinoline-2-carboxamide] is 100 to 1000 nM; for `N#Cc1cc(Cc2cc(C(=O)NCc3ccc4[nH]cc(Cl)c4c3F)ccn2)cc2cc(Cl)cnc12` [Example 51, N-((3-chloro-4-fluoro-1H-indol-5-yl)methyl)-2-((3-chloro-8-cyanoquinolin-6-yl)methyl)isonicotinamide] it is less than 100 nM. Turning to `Cc1cc(N)nc(C)c1CNC(=O)c1ccnc(Cc2cc(C(=O)O)c3ncc(Cl)cc3c2)c1` [Example 93, 6-((4-(((6-amino-2,4-dimethylpyridin-3-yl)methyl)carbamoyl)pyridin-2-yl)methyl)-3-chloroquinoline-8-carboxylic acid], the half-maximal inhibitory concentration (IC50) was less than 100 nM.

These data come from patent publication US9611252B2 (LifeSci Pharmaceuticals, Inc., priority 2013, dated 2017).
